# Experimental data reported in article doi:10.1101/2025.10.10.681740, “Distinct Filament Conformation for Receptor-Bound Amyloid-ß from Alzheimer’s Disease Brain” (bioRxiv, 2025).
# “Also recorded” adds a separate entry of the source.
# B1: Lecanemab: FDA approved anti-Aß antibody (antibody, chains of the INN, looked up, V domains shown)
# VH: EVQLVESGGGLVQPGGSLRLSCSASGFTFSSFGMHWVRQAPGKGLEWVAYISSGSSTIYYGDTVKGRFTISRDNAKNSLFLQMSSLRAEDTAVYYCAREGGYYYGRSYYTMDYWGQGTTVTVSS
# VL: DVVMTQSPLSLPVTPGAPASISCRSSQSIVHSNGNTYLEWYLQKPGQSPKLLIYKVSNRFSGVPDRFSGSGSGTDFTLRISRVEAEDVGIYYCFQGSHVPPTFGPGTKLEIK
# Tests used:
# PrP^C [1] = system: PrP^C
# IC16 antibody = test: IC16 capture ELISA; type: binding
# [2] = parameters: method as in 3 sources, one per row (each row's own in cited_ref): ref 13 = [13]; PMID 9600986; doi:10.1073/pnas.95.11.6448; 13. Lambert MP , Diffusible, nonfibrillar ligands derived from Abeta1-42 are potent central nervous system neurotoxins . Proc Natl Acad Sci U S A 95 , 6448 – 6453 ( 1998 ). 9600986 10.1073/pnas.95.11. ||| ref 15 = [15]; PMID 26018073; doi:10.1074/jbc.M115.643577; 15. Kostylev MA , Prion-Protein-interacting Amyloid-beta Oligomers of High Molecular Weight Are Tightly Correlated with Memory Impairment in Multiple Alzheimer Mouse Models . J Biol Chem 290 , 17415 – ||| ref 14 = [14]; PMID 19216516; doi:10.1021/bi802046n; 14. Yu L , Structural characterization of a soluble amyloid beta-peptide oligomer . Biochemistry 48 , 1870 – 1877 ( 2009 ). 19216516 10.1021/bi802046n; settings: cited from earlier work
# PrP^C [3] = settings: cited from earlier work
# Aß42 [4] = test: Thioflavin-T polymerization of Aß42; type: biochemical
# Aß = type: biochemical, mouse
# [5] = Electron microscopy length of Aß assemblies; type: physicochemical; settings: for length (mean ± sd): electron microscopy; for filament length, overall: human AD brain
# [6] = system: human iPSC-derived cortical excitatory neurons; test: Synapse loss in human iPSC-derived cortical neurons; type: cell-based; settings: 7 days
# Procedure: Human neurons derived from induced pluripotent stem cells (iPSCs) with Neurogenin2 (Ngn2) stably integrated under doxycycline control were prepared and cultured as described. Poly-D-Lysine-coated 384 well plates (Corning # 354663) were seeded with 2,000 cells in 50 μl of Classic Neuronal Media (CNR: 50% DMEM/F12 (Gibco), 50% Neurobasal-A (Gibco), 0.5X Glutamax (Gibco), 1X MEM Non-Essential Amino Acids Solution (Gibco), 0.5X B27 supplement (Gibco), 0.5X N-2 supplement (Gibco), 10 ng/ml BDNF (PeproTech), 10 ng/ml NT-3 (PeproTech), 1 μg/ml mouse Laminin (Gibco)) containing 2 μg/ml doxycycline hydrochloride (Sigma). On DIV 7 and 14, 50 μl of CNR without doxycycline hydrochloride was added to each well. Every week after that, 30 μl of media was removed from each well and replaced with 30 μL of fresh media. Cells were grown for at least 60 days before treatment with receptor-bound Aßo. […]
# Image analysis was performed using ImageXpress built in analysis software, MetaXpress. […] To measure synapsin1/2 density on MAP2, the number of synaptic puncta overlapping with the MAP2 mask were counted and then divided by the area of the MAP2 mask. To measure Synapsin1/2 colocalized with homer1b/c density on MAP2, first, only the round objects of Synapsin1/2 and Homer1b/c colocalized with each other that also overlap with MAP2 were counted and divided by the MAP2 area. […]
# anti-Aß antibodies = test: Immunoblot epitope profiling, receptor-bound vs sarkosyl-insoluble Aß; type: binding; settings: n=4 AD brains; for amino-terminal epitope immunoreactivity, receptor-bound vs sarkosyl-insoluble: normalized to mid-region antibody 4G8, HFIP-monomerized
# Text: The tubes were then opened and kept in the fume hood overnight at room temperature to evaporate the HFIP. The remaining protein films were resuspended in 1X Laemmli buffer supplemented with 8 M urea. The resulting samples were separated on 4-20% gradient Criterion Tris-Glycine gels (BioRad), transferred onto the nitrocellulose membranes, blocked with Rockland fluorescent Western Blot blocking buffer and immunoprobed with the appropriate detection antibodies overnight at 4C, washed in PBST, incubated the IRdye conjugated secondary antibodies (LiCor) for 1 h at RT and imaged on the near-infrared scanner (LiCor Odyssey). Both primary and secondary antibody were diluted in Rockland fluorescent Western Blot blocking buffer. The immunoblot data quantitation was performed using the LiCor ImageStudio software.
# PrP^C [7] = system: PrP^C; remark: listed apart in the source
# Aß42 [8] = test: Filament length at end of polymerization reactions (negative stain EM)
# [9] = Monomer count from cryo-EM rung spacing and length; type: physicochemical; settings: 4.75 Å rung spacing, 65 nm length, two monomers per rung
# Text: Data sets were processed using standard amyloid helical reconstruction procedures implemented in RELION 4.0 [49]. Dose-fractionated micrograph movies were corrected for beam-induced motion using the RELION’s own implementation of motion correction. Contrast transfer function (CTF) parameters were estimated from the motion-corrected micrographs using CTFFIND-4.1 [51]. The start-end coordinates of the Aß filaments were manually marked in the aligned micrographs using RELION 4.0. Segments were extracted with an inter-box distance of 12-Å, a helical rise of 4.75 Å and using a box size of 200 pixels with 1.068 Å per pixel. Extracted segments were subjected to several rounds of reference free two-dimensional (2D) classification to remove suboptimal segments and to select for segments showing detailed features along the filament axis. A three-dimensional (3D) cylinder was generated using the “relion_helix_toolbox” utility and used as reference for an initial 3D classification of the helical segments retained after the 2D classification steps. The initial 3D classification performed on the set of optimal 2D-segments assumed a helical rise of 4.75 Å and a value of the helical twist as estimated from the crossover distances in the 2D class averages. […]
# [10] = Size exclusion chromatography with PLISA readout; type: physicochemical; settings: Superdex 200, purified Aß spiked in control brain TBS lysate, PLISA of fractions
# Aß species = settings: reported; cited from earlier work
# Text: For this comparison, the PSCMA-released Aß pool prior to antibody affinity retention was compared to PSCMA-resistant material containing plaque-associated Aß. The PSCMA-resistant material was further extracted with sarkosyl, and the sarkosyl-insoluble pellet resuspended for immunoblot. The Aß ...
# receptor-bound Aß = test: Lecanemab capture ELISA; type: binding, human; settings: Lecanemab coated plate, D54D2 detection; Extended Data Fig. 1: 5 μg/mL coating, vs isotype control and no antibody wells
molecule,measurement,setting,value
Aß42 globulomer: Globulomers of Aß42 are prepared in SDS and then isolated as stable 12-mers,"PrP^C binding, summary",PrP^C [1],binds
same,apparent avidity for PrP^C in PLISA,PrP^C [1],similar
same,affinity/activity in IC16 capture ELISA,IC16 antibody,much higher activity
same,assembly state,[2]; prepared in SDS,stable 12-mers
Aß42 monomers: HFIP-monomerized synthetic Aß42,apparent avidity for PrP^C in PLISA,PrP^C [1],nil or at least two orders of magnitude lower
amyloid-ß [Aß],off-rate from PrP^C,PrP^C [3],slow off-rate with a half-life of days
amyloid-ß derived diffusible ligands [synthetic Aß42 ADDL],"PrP^C binding, summary",PrP^C [1],binds
same,apparent MR,[2]; no reference at place,"500,000"
same,assembly size,"[2]; synthetic Aß42 in F12 media, metastable spherical assemblies",500 kDa
cellular prion protein [PrP^C],effect on Aß42 amyloid filament formation,Aß42 [4],inhibits Aß42 amyloid filament formation
same,effect on rate of Aß42 polymerization seeded by fibrils,Aß42 [4]; pH 7.4,reduced the rate of Aß42 polymerization or Aß42 polymerization seeded by fibrils
same,"effect on rate of Aß42 polymerization, unseeded",Aß42 [4]; pH 7.4,reduced the rate of Aß42 polymerization
"receptor-bound Aß: PSCMA-released, IC16-immunopurified Aß filament pool from Alzheimer's disease brain","amount detected in APP/PS1, Prnp−/− mice (vs WT Prnp background)",Aß,Significantly lower amount
same,reduction of Aß released by PSCMA when PrP^C was absent,Aß,about 50%
same,"PrP^C binding, summary",PrP^C [1],binds
same,apparent avidity for PrP^C in PLISA,PrP^C [1],binds PrP^C with the affinity similar to that for synthetic Aß oligomeric preps (F12)
same,length (mean ± sd),[5]; second of three AD brains,70±24.4 nm
same,length (mean ± sd),[5]; third of three AD brains,71±29.2 nm
same,"filament length, overall",[5],about 65 nm
same,"filament length, overall",[5]; listed as Receptor-bound amyloid-ß,65 nm
same,dendrite density (MAP2 area),"[6]; 160 pM Brain A, 80 pM Brain B, 16 pM Brain C, vs control brain fraction",does not change
same,synaptic density (Synapsin1/Homer1b/c overlap at MAP2 dendrites),"[6]; 16-160 pM assembly (4-40 nM monomer equivalent), three AD brains vs control brain fraction",significantly reduced; also recorded: potently suppresses synapse density
same,"Aß40 reactivity, receptor-bound vs fibrillary pool","anti-Aß antibodies; carboxyl terminus, normalized to mid-region antibody",greater for Aß40 in the receptor-bound pool
same,"amino-terminal epitope immunoreactivity, receptor-bound vs sarkosyl-insoluble",anti-Aß antibodies,five-fold enriched
same,"amino-terminal epitope immunoreactivity, receptor-bound vs sarkosyl-insoluble",anti-Aß antibodies; listed as Receptor-bound Aß,significant increase in the immunoreactivity with antibodies directed against N-terminus of Aß
same,"pyroglutamylated Aß reactivity, receptor-bound vs insoluble fibrillary Aß",anti-Aß antibodies; normalized to mid-region antibody,present equally in both receptor-bound Aß and insoluble fibrillary Aß
same,maximal ThT fluorescence,"Aß42 [4]; 20 nM monomer equivalent seeds, 5 μM Aß42, vs no seeds",reduced the maximal fluorescence achieved
same,effect on Aß42 polymerization rate as seed,"Aß42 [4]; 20 nM monomer equivalent, 5 μM Aß42, n=19 experiments, Brains A-D, vs no seeds",significantly slowed polymerization
same,distance of PrP^C-associated gold particles from filament tips,PrP^C [7],≤ 5 nm
same,length of filaments at completion of polymerization,"Aß42 [8]; 5 μM Aß42, without seeds or with 20 nM seeds, negative stain EM",200-500 nm
same,filament length compared with other seeds / no seeds,"Aß42 [8]; 4 different brains, 20 nM seeds, 5 μM Aß42",significantly shorter
same,number of monomers per assembly,[9],about 300
same,size by migration of globular proteins,[10],~650 kDa
B1,binding preference among Aß species,Aß species,"preferential affinity for oligomeric and protofibrillary Aß species, with less avidity for Aß filaments and minimal interaction with monomeric Aß"
same,affinity / reactivity for receptor-bound Aß,receptor-bound Aß,high affinity for the receptor-bound Aß species; also recorded: receptor-bound Aß is recognized by this antibody; also recorded: binds to ELISA plates coated with 5 μg/mL Lecanamab but not to wells coated with isotype control or to no antibody wells
